{"source": "patent US20050042213A1", "about": "“Methods and pharmaceutical compositions for modulating heparanase activation and uses thereof” (InSight Biopharmaceuticals Ltd., priority 2003, published 2005)", "test_system": "HT1080 cells", "assay": "In vitro assay of invasion inhibition (matrigel, BD BioCoat)", "type": "cell-based", "conditions": "Homo sapiens, HT-1080", "protocol": "In vitro assay of invasion inhibition—The ability of the compounds of the invention to inhibit cell invasion was determined quantitatively by the in vitro Endothelial Cell Migration assay using a BD BioCoat Angiogenesis System kit. The kit consisted of a 24-multiwell insert plate (FluoroBlok, BD Falcon) containing a microporous (3.0 μm pore size) polyethylene terephthalate (PET) membrane that was capable of blocking fluorescence completely (>99% efficiency). This membrane was uniformly coated with matrigel (BD Matrigel Matrix). The uniform layer of matrigel matrix served as a reconstituted authentic basement membrane in vitro, providing a true barrier to non-invasive cells, but allowing endothelial cells to attach to the membrane and freely migrate towards an angiogenic stimulus in the lower chamber of the insert plate. Post-labeling the cells with a fluorescent dye and measuring the fluorescence of invading cells in a fluorescent plate reader, provided quantitative measurement of cell invasion.\nTo cover the optimal seeding density for HT1080 cells, suspensions containing various cell concentrations were prepared: 1 ml of 3×10^5 cells/ml, 8 ml of 1.5×10^5 cells/ml and 1 ml of 0.75×10^5 cells/ml. […] Only those labeled cells that have invaded the matrigel and passed through the pores of the PET membrane, were detected."}
{"compound": "O=C(O)CCCN1C(=O)C(=Cc2ccc(-c3ccc([N+](=O)[O-])cc3)o2)SC1=S", "note": "[Compound 5]", "values": [{"measurement": "IC50", "value": 12, "unit": "µM"}]}
